Assay results as given in patent publication US8916550B2, “Compounds for modulating TRPV3 function” (Hydra Biosciences, Inc., priority 2005, dated 2014).

Assays:
Male Holtzman rats [1] = experiment: Behavioral deficits / side effects observed in thermal injury experiment (animals affected of n); type: in vivo, rat; conditions: for Blistered paw / Catalepsy / Corneal response / Exopthalmos / Pinna response / Spontaneous agitation / Tactile allodynia: 10 mg/kg
Protocol: (§1) Briefly, the following protocol was followed. Male Holtzman rats (approximately 300 grams) were tested on thermal escape using a Hargreaves type apparatus. Under light anesthesia, a thermal injury (52° C. for 45 seconds) was applied to one heel. The animals were tested for thermal escape latency of the injured and uninjured paw before and at 30, 60, 80 and 120 minutes after injury. Drug (a TRPV3 inhibitor or morphine) or vehicle (0.5% methylcellulose) was administered after the baseline measurement and approximately 15-20 minutes prior to the thermal injury. In addition to the escape latency measurement, behavioral observations were made throughout the experiment.
Table A provides a comparison of the side-effects observed in rats following administration of TRPV3 inhibitor 64, at varying concentrations, versus the side-effects observed in rats administered 10 mg/kg of morphine. Side-effects of rats administered 0.5% methycellulouse were observed and served as a control.

[2] = test system: rats, CFA injected hindpaw; conditions: Table B comparators; based on our data as well as data available in the literature; cited from earlier work
[3] = test system: rats, carrageenan-injected hindpaw; conditions: Table B comparators; based on our data as well as data available in the literature; cited from earlier work
Male Holtzman rats [4] = conditions: Table B comparators; based on our data as well as data available in the literature; cited from earlier work
[5] = test system: Male Holtzman rats, thermal injury; experiment: Thermal injury model, thermal escape latency (Hargreaves); type: in vivo, rat
Protocol: The thermal injury model was used to evaluate the effectiveness of an exemplary TRPV3 inhibitor in the treatment of nociceptive pain. FIG. 1 provides a schematic representation of the protocol used to evaluate a TRPV3 inhibitor in the thermal injury model.
as §1

[6] = test system: Male Holtzman rats, thermal injury; conditions: Table B comparators; based on our data as well as data available in the literature; cited from earlier work
[7] = test system: Male Holtzmann rats, intraplantar formalin; conditions: Table B comparators; based on our data as well as data available in the literature; cited from earlier work

With `CN1CC[C@]23c4c5ccc(O)c4O[C@H]2[C@@H](O)C=C[C@H]3[C@H]1C5` [Morphine, morphine] the Blistered paw (Male Holtzman rats [1]; Pre Injury Observation) was 0 of 7, the Catalepsy (Male Holtzman rats [1]; Pre Injury Observation) was 0 of 7 and the Corneal response (Male Holtzman rats [1]; Pre Injury Observation) was 0 of 7. The Exopthalmos (Male Holtzman rats [1]; Pre Injury Observation) was 0 of 7, the Pinna response (Male Holtzman rats [1]; Pre Injury Observation) was 0 of 7 and the Spontaneous agitation (Male Holtzman rats [1]; Pre Injury Observation) was 0 of 7. For the same compound, the Tactile allodynia (Male Holtzman rats [1]; Pre Injury Observation) was 0 of 7, the Blistered paw (Male Holtzman rats [1]; t = 30 min) was 0 of 7 and the Catalepsy (Male Holtzman rats [1]; t = 30 min) was 4 of 7. The Corneal response (Male Holtzman rats [1]; t = 30 min) was 0 of 7, the Exopthalmos (Male Holtzman rats [1]; t = 30 min) was 6 of 7 and the Pinna response (Male Holtzman rats [1]; t = 30 min) was 5 of 7. For the same compound, the Spontaneous agitation (Male Holtzman rats [1]; t = 30 min) was 0 of 7, the Tactile allodynia (Male Holtzman rats [1]; t = 30 min) was 0 of 7 and the Blistered paw (Male Holtzman rats [1]; t = 60 min) was 0 of 7. The Catalepsy (Male Holtzman rats [1]; t = 60 min) was 3 of 7, the Corneal response (Male Holtzman rats [1]; t = 60 min) was 0 of 7 and the Exopthalmos (Male Holtzman rats [1]; t = 60 min) was 6 of 7. For the same compound, the Pinna response (Male Holtzman rats [1]; t = 60 min) was 2 of 7, the Spontaneous agitation (Male Holtzman rats [1]; t = 60 min) was 0 of 7 and the Tactile allodynia (Male Holtzman rats [1]; t = 60 min) was 0 of 7. For the same compound, the Blistered paw (Male Holtzman rats [1]; t = 90 min) was 0 of 7, the Catalepsy (Male Holtzman rats [1]; t = 90 min) was 1 of 7 and the Corneal response (Male Holtzman rats [1]; t = 90 min) was 0 of 7. The Exopthalmos (Male Holtzman rats [1]; t = 90 min) was 6 of 7, the Pinna response (Male Holtzman rats [1]; t = 90 min) was 0 of 7 and the Spontaneous agitation (Male Holtzman rats [1]; t = 90 min) was 0 of 7. For the same compound, the Tactile allodynia (Male Holtzman rats [1]; t = 90 min) was 0 of 7, the Blistered paw (Male Holtzman rats [1]; t = 120 min) was 0 of 7 and the Catalepsy (Male Holtzman rats [1]; t = 120 min) was 0 of 7. For the same compound, the Corneal response (Male Holtzman rats [1]; t = 120 min) was 0 of 7, the Exopthalmos (Male Holtzman rats [1]; t = 120 min) was 0 of 7 and the Pinna response (Male Holtzman rats [1]; t = 120 min) was 0 of 7. For the same compound, the Spontaneous agitation (Male Holtzman rats [1]; t = 120 min) was 0 of 7, the Tactile allodynia (Male Holtzman rats [1]; t = 120 min) was 0 of 7 and the Side-effects of administration (Male Holtzman rats [1]; morphine 10 mg/kg) was “exopthalmos (bulging eyes), catalepsy (a near catatonic state), and the pinna response”. For the same compound, the “CFA Model” value [2] was “Effective”, the “Carrageenan Model” value [3] was “Effective” and the Non-narcotic (Male Holtzman rats [4]) was “Narcotic”. The “Effect on escape latency of injured and un-injured paw” value ([5]; morphine (FIG. 4)) was “does have an effect on both the injured and un-injured paw”, the “Thermal escape latency after treatment” value ([5]; morphine, FIG. 4 legend) was “elevated above the baseline” and the Acute thermal injury [6] was “Effective”.

In the case of `O=C(NCc1ccc(C(F)(F)F)cc1)Nc1cccc2cnccc12` [TRPV1 Antagonist], the “CFA Model” value [2] is given as “Effective”, the “Carrageenan Model” value [3] is given as “Effective” and the “Formalin Model” value [7] is given as “Ineffective”. The Acute thermal injury [6] was “Effective”.
